Reference: patent publication US20250205158A1, “BIODEGRADABLE LIPIDS AND FORMULATIONS FOR DELIVERY OF MRNA” (Massachusetts Institute of Technology, priority 2023, published 2025)

What was measured:
[1] = system: influenza A/Tasmania/503/2020 virus; test: Hemagglutination inhibition (HAI) assay, neutralizing antibody titers after HA mRNA vaccination; type: in vivo, BALB/cJ mice; settings: female BALB/cJ mice, dose-response vaccination
Procedure: To test this, a dose-response vaccination experiment ranging from […] was performed in female BALB/cJ mice. Neutralizing antibody titers were evaluated using the hemagglutination inhibition (HAI) assay. HAI titers are strongly correlated with vaccine protection and the assay is an FDA approved method for testing influenza vaccine efficacy^38,39 In agreement with the binding antibody titers, higher neutralizing […] were measured across all three tested doses: SM-102 only gave detectable neutralizing immunity at a 1 μg dose, while AMG1541 gave neutralizing immunity with as little was 10 ng of mRNA (FIG. 13H). Not only was AMG1541 able to generate neutralizing immunity at a very low dose, the binding and neutralizing antibody titers were equivalent in mice vaccinated with AMG1541 at a […] as those with SM-102 at a […] (FIG. 13H).
HAI Assay. HAI assays were performed by IBT bioservices. Viral titers were standardized by defining one HA unit as the amount of inactivated influenza A/Tasmania/503/2020 virus required to completely hemagglutinate an equal volume of 1% turkey red blood cells (TRBCs) (Lampire). Serum was heat inactivated at 56° C. then receptor destroying enzyme (RDE) (DENKA) was added to the serum and incubated at 37° C. for 20 hrs. RDE was then deactivated at 56° C. for 60 mins. Serum samples were then serially diluted in DPBS and 25 μL of diluted serum was added to a 96-well V bottom plate. Subsequently, four HA units of inactivated virus in 25 μL of DPBS were added to the diluted serum and incubated for 30 mins. at RT. 50 μL of a 1% (4×10^7 cells/mL) solution of turkey red blood cells (Lampire) was then added to the serum and virus mixture.

mice = settings: FLuc expression in liver and spleen 6 hours after IM injection
Procedure: Evaluation of the LNPs via intramuscular injection. The in vivo potency of the ionizable lipids was screened through intramuscular injection of LNPs loaded with mRNA encoding firefly luciferase protein. These LNPs were formulated with a molar composition of (35:16:46.5:2.5) using one of the synthesized ionizable lipids, DOPE as a helper lipid, cholesterol, and DMPE-PEG respectively. mRNA-loaded LNPs were intramuscularly administered in mice at a dose of 1 μg, and expression of luciferase protein was monitored at 6 hours via IVIS bioluminescent imaging (FIG. 3). […] Without wishing to be bound by theory, increased levels of protein expression may enhance the response to vaccination.
In Vitro and In Vivo Screening of AMG Lipid Library. Following synthesis, the mRNA delivery efficacy of the AMG lipids was evaluated through both in vitro and in vivo screens. To screen the first generation of AMG lipids (FIGS. 11B and 11C), firefly luciferase (FLuc) mRNA was encapsulated into LNPs using a previously reported formulation containing ionizable lipid, 1,2-dioleoyl-sn-glycero-3-phosphoethanolamine (DOPE), cholesterol, and 1,2-dimyristoyl-rac-glycero-3-methoxypolyethylene glycol-2000 (DMG-PEG).^19 C2C12 myoblast cells were treated with these LNPs and FLuc expression was evaluated at 24 hrs. (FIG. 16). […] Each of these batches was then injected IM into the quadriceps of mice, and expression was characterized via IVIS imaging (Screen 1, FIG. 11E).
AMG lipids for enhanced mRNA delivery and improved tolerability. A rational design approach was used to further vary the ionizable lipid structure to enhance the mRNA delivery and immunogenicity. […] The lipid tail structure was varied to promote efficient LNP self-assembly while simultaneously promoting endosomal membrane disruption.^18 Monounsaturated (G41-G44) or fully saturated (GC12-GC18) lipid tails were developed. […] Without wishing to be bound by any particular theory, tail length may impact membrane fusion and endosomal escape.^10,11
Next, the headgroup was further modified to further improve delivery. Headgroups play a multifunctional role including enhancing LNP-mRNA interactions, promoting membrane-LNP fusion and endosomal escape which all contribute to mRNA delivery.^23 A series of similar aza-crown ethers were used to further investigate structure-activity relationship and enhance mRNA delivery. These headgroups featured between three and eight nitrogens linked by varying length of methylene chains. Each of these headgroups were reacted with tail G41 to synthesize a next generation of AMG lipids, which were then formulated with FLuc mRNA and evaluated for mRNA delivery following IM administration in mice (FIG. 12B).

[2] = in vivo; cited from earlier work
[3] = Ethanol solubility of ionizable lipids; type: physicochemical
Description: AMG lipids for enhanced mRNA delivery and improved tolerability.

Compound	dose giving detectable neutralizing immunity [1] [µg]	fold higher mRNA transfection in the liver and spleen compared to AMG1541 (mice) [fold]	time SM-102 remained detectable at the injection site [2]	time SM-102 remained detectable in the liver and spleen [2]	ethanol solubility [3]
CCCCCCCCCCCOC(=O)CCCCCN(CCO)CCCCCCCC(=O)OC(CCCCCCCC)CCCCCCCC [SM-102, reference compound]	1	~100	at least 48 hours	at least 10 hours	
CCCCCCCCCCCCCC(=O)OCC(O)CN1CCCN(CC(O)COC(=O)CCCCCCCCCCCCC)CCN(CC(O)COC(=O)CCCCCCCCCCCCC)CCCN(CC(O)COC(=O)CCCCCCCCCCCCC)CC1 (mixture of isomers) [AMG10C14]					poor ethanol solubility
